{"source": "paper PMC3412845", "about": "“Waking Action of Ursodeoxycholic Acid (UDCA) Involves Histamine and GABAA Receptor Block” (PLoS ONE, 2012)", "key": {"[1]": {"test_system": "isolated TMN neurons (sIPSCs)", "assay": "sIPSCs in acutely isolated and cultured neurons", "format": "cell-based", "conditions": "gabazine", "procedure": "(§1) Recordings from histaminergic neurons in male Wistar rat (22–26 day old) or 30–60 day old mouse (SV129, histidine decarboxylase deficient HDC−/− or their wild type littermates) hypothalamic slices were performed as previously described. Slices were obtained between 9 and 11 a.m. In the beginning of whole-cell voltage clamp recordings TMN neurons were identified with the help of DIC microscopy and electrophysiological criteria as previously described. Inhibitory postsynaptic currents (IPSCs) were evoked by local stimulation through a bipolar stainless-steel stimulating electrode (50 µm; WPI, UK). The stimulation of axonal endings coming to TMN from ventrolateral preoptic area (VLPO) was done as described in [22]. […] Individual neurons were separated by vibrodissociation after brief preincubation with papain from the hypothalamic slices of mice or rats and identified as TMN neurons according to their size and shape. Identification was confirmed post hoc with the single-cell RT-PCR (all data presented in the manuscript were obtained from histidine decarboxylase-expressing neurons), [40]. TMN neurons from HDC−/− mice were identified by the expression of peripherin [16]. Whole-cell voltage-clamp recordings from isolated neurons were done with an EPC-9 amplifier and TIDA for Windows (HEKA, Lambrecht, Germany) at room temperature. Membrane potentials were not corrected for liquid junction potential (5.6 mV, calculated with LJPCalc, Barry, 1994). The intracellular solution was composed of (in mM) 140 KCl, 2 MgCl2, 0.5 CaCl2, 5 EGTA, 2 ATP and 10 HEPES (pH 7.2 adjusted with NaOH). A fast perfusion technique was used for application of ligands and modulators of fast ionotropic receptors, [41]. […] EC50 is the ligand concentration producing a half-maximal response, [ligand] is ligand concentration, and n is the Hill slope. Hill coefficients were obtained from the slope of the log/log plot of the dose-response curves. […] Steady-state amplitudes of the responses were used for the construction of dose-response plots if not mentioned otherwise."}, "[2]": {"test_system": "TMN neurons (eIPSCs and sIPSCs)", "assay": "Spontaneous and evoked IPSCs in TMN neurons in brain slices", "format": "cell-based, rat", "conditions": "gabazine 10 µM, n = 5", "procedure": "as §1"}, "[3]": {"target": "T1, α1β2γ2L GABAA receptors (WT) (UniProt P22723+P62813+P63138)", "T1 construct": "expressed in transfected cells; host or cells: HEK293", "T1 sequence (P62813 28-455)": "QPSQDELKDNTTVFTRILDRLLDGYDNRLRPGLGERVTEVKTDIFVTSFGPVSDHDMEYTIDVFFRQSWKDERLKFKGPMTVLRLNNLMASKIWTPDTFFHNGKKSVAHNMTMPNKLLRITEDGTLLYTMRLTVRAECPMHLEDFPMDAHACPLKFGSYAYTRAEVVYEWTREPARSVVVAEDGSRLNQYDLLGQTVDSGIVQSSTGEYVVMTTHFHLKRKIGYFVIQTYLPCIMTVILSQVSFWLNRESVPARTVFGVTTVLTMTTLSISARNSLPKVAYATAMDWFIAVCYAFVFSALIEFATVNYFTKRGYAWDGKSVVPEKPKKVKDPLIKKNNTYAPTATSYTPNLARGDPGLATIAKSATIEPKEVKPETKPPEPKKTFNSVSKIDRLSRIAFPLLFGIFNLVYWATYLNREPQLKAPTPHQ", "T1 sequence (P63138 25-474 limits assumed)": "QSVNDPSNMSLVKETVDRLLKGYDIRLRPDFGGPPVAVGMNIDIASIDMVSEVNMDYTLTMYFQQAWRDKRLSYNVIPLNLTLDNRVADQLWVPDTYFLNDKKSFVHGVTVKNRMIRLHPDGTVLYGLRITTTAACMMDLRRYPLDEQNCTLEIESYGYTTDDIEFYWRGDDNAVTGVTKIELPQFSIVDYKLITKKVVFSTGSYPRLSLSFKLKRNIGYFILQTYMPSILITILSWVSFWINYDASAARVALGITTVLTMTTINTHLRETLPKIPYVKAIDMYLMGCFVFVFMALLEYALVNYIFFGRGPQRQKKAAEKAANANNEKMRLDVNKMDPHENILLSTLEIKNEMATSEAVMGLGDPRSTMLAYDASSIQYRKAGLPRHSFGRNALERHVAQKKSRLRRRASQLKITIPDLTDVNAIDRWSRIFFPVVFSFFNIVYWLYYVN", "T1 sequence (P22723 39-474)": "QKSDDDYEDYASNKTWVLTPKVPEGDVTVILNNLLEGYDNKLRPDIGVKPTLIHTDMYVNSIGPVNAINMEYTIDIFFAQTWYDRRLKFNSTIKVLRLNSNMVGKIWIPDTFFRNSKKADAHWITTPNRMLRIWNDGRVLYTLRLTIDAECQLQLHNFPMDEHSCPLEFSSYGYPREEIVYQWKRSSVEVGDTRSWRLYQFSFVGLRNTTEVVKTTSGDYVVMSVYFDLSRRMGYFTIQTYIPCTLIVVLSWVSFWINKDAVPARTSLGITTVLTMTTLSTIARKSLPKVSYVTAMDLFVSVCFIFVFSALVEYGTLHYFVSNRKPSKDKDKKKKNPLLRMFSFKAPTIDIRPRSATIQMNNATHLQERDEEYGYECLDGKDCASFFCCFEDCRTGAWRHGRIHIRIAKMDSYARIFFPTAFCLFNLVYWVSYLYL", "assay": "Patch-clamp of recombinant wild-type α1β2γ2L GABAAR in HEK293 cells", "format": "cell-based, rat α1, rat β2, mouse γ2L", "conditions": "pregnenolone sulphate 10 µM", "procedure": "(§2) HEK 293 cells were obtained from DSM (Deutsche Sammlung von Mikroorganismen und Zellkulturen GmbH, DSM, Braunschweig). They were grown and maintained according to published standard protocols. Briefly, cells were grown in minimal essential medium supplemented with 10% fetal bovine serum, 100units/ml penicillin and streptomycin and 2 mM L-glutamine and splitted once per week. Semiconfluent cells were transfected on the third day after splitting with the help of Lipofectamine 2000 (Invitrogen), recordings were done 48–72 hrs after transfection.\n(§3) The GABAAR subunit cDNAs, generously donated by G.Gisselmann (rat α1, mouse γ2L, rat β1, β2 and human β3 [26]) and J.H. Steinbach (rat α1V256S [28] and rat α1Q241L [44]), were subcloned into pcDNA3 (Invitrogen, Karlsruhe, Germany) and applied in a ratio 1∶1∶1 for the α1βxγ2L receptor and 1∶1 for α1β3 or β3γ2L receptors. […] For each receptor type patch clamp recordings were obtained from at least three separate transfections. Whole-cell patch clamp recordings were done in a similar extracellular solution as for the native cells (see above) except that the concentration of MgCl2 was reduced to 1.2 mM. Intracellular electrodes contained 140 mM CsCl (instead of KCl), pH adjusted with CsOH. The voltage was held at −40 mV."}, "[4]": {"target": "T2, α1V256Sβ2γ2L GABAA receptors (UniProt P22723+P62813+P63138, V283S)", "T2 construct": "expressed in transfected cells; host or cells: HEK293", "T2 sequence (P62813 28-455 V283S)": "as the sequence (P62813 28-455) above, with V256S counted along it", "T2 sequence (P63138 25-474 limits assumed)": "as the sequence (P63138 25-474 limits assumed) above", "T2 sequence (P22723 39-474)": "as the sequence (P22723 39-474) above", "assay": "Patch-clamp of mutant α1V256Sβ2γ2L GABAAR in HEK293 cells", "format": "cell-based, rat α1V256S, rat β2, mouse γ2L", "conditions": "pregnenolone sulphate 10 µM", "procedure": "as §2, §3"}, "[5]": {"test_system": "cultured hypothalamic neurons", "assay": "Microelectrode array (MEA) recordings of cultured hypothalamic neurons", "format": "cell-based, mouse", "conditions": "with GABAA receptor antagonist gabazine", "procedure": "Primary dissociated cultures of posterior hypothalamus were prepared from newborn mice according to the protocols previously described, [43]. […] Recordings were done between 11th-21st day after plating. […] Signals from all 60 electrodes were simultaneously sampled at 25 kHz, visualized and stored using the standard software […] provided by Multi Channel Systems. Spike detection and analysis was performed offline with the software […] (RESULT Medizinische […], Germany), which uses the agreement coefficient “Cohen's kappa” (κ) to assess the degree of spike and burst synchrony for selected pairs of electrodes. […] In order to describe the distribution of kappa across the whole MEA, we calculated the mean of all kappa-values obtained for pairs of “active” electrodes. At the beginning of experiments the basal medium was replaced by a magnesium-free HEPES-based recording solution (see above) and measurements were started after a 20 min adaptation phase. Every measurement comprised three recordings - control, test substance and washout (second control) - each two minutes long and separated by an intermediate period of 30 seconds."}, "NMDA receptors": {"test_system": "NMDA receptors", "assay": "NMDA-evoked currents in isolated neurons", "format": "cell-based", "conditions": "D-AP5 100 µM", "procedure": "Recordings from histaminergic neurons in male Wistar rat (22–26 day old) or 30–60 day old mouse (SV129, histidine decarboxylase deficient HDC−/− or their wild type littermates) hypothalamic slices were performed as previously described. Slices were obtained between 9 and 11 a.m. In the beginning of whole-cell voltage clamp recordings TMN neurons were identified with the help of DIC microscopy and electrophysiological criteria as previously described. Inhibitory postsynaptic currents (IPSCs) were evoked by local stimulation through a bipolar stainless-steel stimulating electrode (50 µm; WPI, UK). The stimulation of axonal endings coming to TMN from ventrolateral preoptic area (VLPO) was done as described in [22]. Visual identification of histaminergic neurons recorded in cell-attached configuration (see [16]) was confirmed by the significant reduction of firing rate by the histamine 3 (H3) receptor agonist R-α-methylhistamine (0.2 µM), which was performed at the end of each experiment. Individual neurons were separated by vibrodissociation after brief preincubation with papain from the hypothalamic slices of mice or rats and identified as TMN neurons according to their size and shape. Identification was confirmed post hoc with the single-cell RT-PCR (all data presented in the manuscript were obtained from histidine decarboxylase-expressing neurons), [40]. TMN neurons from HDC−/− mice were identified by the expression of peripherin [16]. Whole-cell voltage-clamp recordings from isolated neurons were done with an EPC-9 amplifier and TIDA for Windows (HEKA, Lambrecht, Germany) at room temperature. Membrane potentials were not corrected for liquid junction potential (5.6 mV, calculated with LJPCalc, Barry, 1994). The intracellular solution was composed of (in mM) 140 KCl, 2 MgCl2, 0.5 CaCl2, 5 EGTA, 2 ATP and 10 HEPES (pH 7.2 adjusted with NaOH). A fast perfusion technique was used for application of ligands and modulators of fast ionotropic receptors, [41]. […] EC50 is the ligand concentration producing a half-maximal response, [ligand] is ligand concentration, and n is the Hill slope. Hill coefficients were obtained from the slope of the log/log plot of the dose-response curves. […] Steady-state amplitudes of the responses were used for the construction of dose-response plots if not mentioned otherwise.\nFor the testing of UDCA action at NMDA receptors a maximal 0.2 mM concentration of agonist was used. Recordings were done in Mg^2+ -free solution in the presence of 10 µM of glycine. NMDA-currents were abolished by the NMDA receptor antagonist D-AP5 (100 µM)."}, "GABAA receptor": {"test_system": "GABAA receptor", "assay": "Voltage dependence of GABAAR block (Woodhull analysis)", "format": "cell-based", "conditions": "Woodhull fit, Eq. 3; for Kd: read-out: KD(0), dissociation constant at 0 mV", "procedure": "Voltage dependence of GABAAR block by UDCA was analysed according to the method of Woodhull, which provides a means of calculating the fraction of the transmembrane field sensed by charged blocking ligand at its acceptor site."}, "native GABAA receptors": {"test_system": "native GABAA receptors", "assay": "GABA-evoked whole-cell currents in acutely isolated TMN neurons (wild type)", "format": "cell-based, mouse", "procedure": "as §1"}, "[6]": {"test_system": "GABAA receptors of HDC−/− TMN neurons", "assay": "GABA-evoked whole-cell currents in TMN neurons from HDC−/− mice", "format": "cell-based, mouse", "procedure": "as §1"}}, "data": [{"molecule": "COc1ccc(-c2ccc(=N)n(CCCC(=O)O)n2)cc1", "note": "[Gabazine, gabazine]", "values": [{"measurement": "GABAergic sIPSCs in isolated TMN neuron", "setting": "[1]", "value": "abolished"}, {"measurement": "eIPSCs and sIPSCs", "setting": "[2]", "value": "abolished"}]}, {"molecule": "CC(=O)C1CCC2C3CC=C4CC(OS(=O)(=O)O)CCC4(C)C3CCC12C", "note": "(centres unmarked) [Pregnenolone sulphate, pregnenolone sulphate]", "values": [{"measurement": "steady-state amplitude of maximal GABA-currents", "setting": "[3]", "value": "11±3 % of control"}, {"measurement": "steady-state amplitude of maximal GABA-currents", "setting": "[4]", "value": "82±6 % of control"}]}, {"molecule": "C[C@H](CCC(=O)NCCS(=O)(=O)O)[C@H]1CC[C@H]2[C@@H]3[C@@H](O)C[C@@H]4C[C@H](O)CC[C@]4(C)[C@H]3CC[C@]12C", "note": "[TUDC, tauroursodeoxycholate]", "values": [{"measurement": "effect on synchronization in the presence of gabazine", "setting": "[5]", "value": "blanks the effect"}]}, {"molecule": "NC(CCCP(=O)(O)O)C(=O)O", "note": "[D-AP5]", "values": [{"measurement": "NMDA-currents", "setting": "NMDA receptors", "value": "abolished"}]}, {"molecule": "C[C@H](CCC(=O)O)[C@H]1CC[C@H]2[C@@H]3[C@H](O)C[C@@H]4C[C@H](O)CC[C@]4(C)[C@H]3CC[C@]12C", "note": "[CDOC, chenodeoxycholate]", "values": [{"measurement": "fraction of the transmembrane field sensed at the acceptor site (f)", "setting": "GABAA receptor", "value": "0.33±0.02"}, {"measurement": "Kd", "setting": "GABAA receptor", "value": 42, "unit": "µM"}]}, {"molecule": "picrotoxin", "values": [{"measurement": "use dependence of block of GABA currents", "setting": "native GABAA receptors", "value": "use-dependent block"}, {"measurement": "reversibility of block of GABA currents", "setting": "native GABAA receptors; GABA 10 µM, 1 s", "value": "not fully reversible"}]}, {"molecule": "C[C@H](CCC(=O)O)[C@H]1CC[C@H]2[C@@H]3[C@H](O)C[C@@H]4C[C@H](O)CC[C@]4(C)[C@H]3C[C@H](O)[C@]12C", "note": "[cholate]", "values": [{"measurement": "fraction of the transmembrane field sensed at the acceptor site (f)", "setting": "GABAA receptor", "value": "0.3±0.02"}, {"measurement": "Kd", "setting": "GABAA receptor", "value": 710, "unit": "µM"}]}, {"molecule": "CC1CC(C)(c2ccccc2)OC(C)O1", "note": "(centres unmarked) [vertacetal]", "values": [{"measurement": "EC50", "setting": "[6]; HDC−/− neurons, n = 5, read-out: EC50 of GABAAR modulation by vertacetal", "value": "9.2 ± 3", "unit": "µM"}, {"measurement": "EC50", "setting": "native GABAA receptors; wild type neurons, n = 5, read-out: EC50 of GABAAR modulation by vertacetal", "value": "13.4 ± 2.6", "unit": "µM"}]}, {"molecule": "Cc1ccc(-c2nc3ccc(C)cn3c2CC(=O)N(C)C)cc1", "note": "[zolpidem]", "values": [{"measurement": "modulation of GABAAR, HDC+/+ versus HDC−/− TMN neurons", "setting": "[6]", "value": "No difference"}]}, {"molecule": "C[C@H](CCC(=O)O)[C@H]1CC[C@H]2[C@@H]3C(=O)C[C@@H]4CC(=O)CC[C@]4(C)[C@H]3CC(=O)[C@]12C", "note": "[dehydrocholate]", "values": [{"measurement": "fraction of the transmembrane field sensed at the acceptor site (f)", "setting": "GABAA receptor", "value": "0.33±0.03"}, {"measurement": "Kd", "setting": "GABAA receptor", "value": 1400, "unit": "µM"}]}]}
